Measured values taken from patent publication US10301308B2, “Azetidine derivatives for tau imaging” (Eli Lilly and Company, priority 2015, dated 2019).

Test: Biodistribution in normal mice (dissection, gamma counting)
Assay type: in vivo
Details: AVG
Protocol: While under anesthesia, 0.2 mL of saline solution containing 20 μCi of 3-(3-[18F]-fluoroazetidin-1-yl)-8-methylbenzo[4,5]imidazo[1,2-a]pyridine is injected directly into the tail vein. Three mice are used per time point and sacrificed in a staggered manner. The following organs and fluids are collected: Blood, Spleen, Thyroid, Testes, Heart, Liver, Pancreas, Kidneys, Muscle, Skin, Stomach, Bone, Lungs, Brain, Intestines, Urogenital system. The organs are weighted and the radioactivity of each organ is counted in an Automatic Gamma Counter (Perkin Elmer). For the skin, bone, muscle and blood, a sample is counted and the total weight of the organ or fluid is estimated. A sample of the injected dose is counted as reference. The Percentage Injected Dose per Gram of tissue (% ID/g) is calculated for each organ.

Structure (SMILES): Cc1ccc2nc3cc(N4CC([18F])C4)ccn3c2c1 [Compound 8, 3-(3-[18F]-fluoroazetidin-1-yl)-8-methylbenzo[4,5]imidazo[1,2-a]pyridine]
- % dose/g Blood (2 minutes): 2.52 % dose/g
- % dose/g Body leftover (2 minutes): 2.43 % dose/g
- % dose/g Bone (2 minutes): 1.89 % dose/g
- % dose/g Brain (2 minutes): 9.53 % dose/g
- % dose/g Fat (2 minutes): 1.09 % dose/g
- % dose/g Heart (2 minutes): 4.79 % dose/g
- % dose/g Intestine (2 minutes): 5.77 % dose/g
- % dose/g Kidney (2 minutes): 39.08 % dose/g
- % dose/g Liver (2 minutes): 7.32 % dose/g
- % dose/g Lung (2 minutes): 26.50 % dose/g
- % dose/g Muscle (2 minutes): 1.81 % dose/g
- % dose/g Pancreas (2 minutes): 8.74 % dose/g
- % dose/g Skin (2 minutes): 0.96 % dose/g
- % dose/g Spleen (2 minutes): 10.89 % dose/g
- % dose/g Stomach (2 minutes): 4.14 % dose/g
- % dose/g Tail (2 minutes): 14.93 % dose/g
- % dose/g Testes (2 minutes): 1.78 % dose/g
- % dose/g Thyroid (2 minutes): 6.01 % dose/g
- % dose/g Urogenital (2 minutes): 4.33 % dose/g
- % dose/organ Blood (2 minutes): 4.54 % dose/organ
- % dose/organ Body leftover (2 minutes): 38.48 % dose/organ
- % dose/organ Bone (2 minutes): 6.87 % dose/organ
- % dose/organ Brain (2 minutes): 4.42 % dose/organ
- % dose/organ Fat (2 minutes): 0.27 % dose/organ
- % dose/organ Heart (2 minutes): 0.72 % dose/organ
- % dose/organ Intestine (2 minutes): 15.39 % dose/organ
- % dose/organ Kidney (2 minutes): 15.93 % dose/organ
- % dose/organ Liver (2 minutes): 11.56 % dose/organ
- % dose/organ Lung (2 minutes): 5.18 % dose/organ
- % dose/organ Muscle (2 minutes): 19.01 % dose/organ
- % dose/organ Pancreas (2 minutes): 1.31 % dose/organ
- % dose/organ Skin (2 minutes): 3.74 % dose/organ
- % dose/organ Spleen (2 minutes): 1.00 % dose/organ
- % dose/organ Stomach (2 minutes): 1.52 % dose/organ
- % dose/organ Tail (2 minutes): 10.85 % dose/organ
- % dose/organ Testes (2 minutes): 0.30 % dose/organ
- % dose/organ Thyroid (2 minutes): 0.10 % dose/organ
- % dose/organ Urogenital (2 minutes): 0.75 % dose/organ
- % dose/g Blood (30 minutes): 1.14 % dose/g
- % dose/g Body leftover (30 minutes): 0.71 % dose/g
- % dose/g Bone (30 minutes): 0.93 % dose/g
- % dose/g Brain (30 minutes): 0.39 % dose/g
- % dose/g Fat (30 minutes): 0.63 % dose/g
- % dose/g Heart (30 minutes): 0.76 % dose/g
- % dose/g Intestine (30 minutes): 10.09 % dose/g
- % dose/g Kidney (30 minutes): 5.98 % dose/g
- % dose/g Liver (30 minutes): 2.76 % dose/g
- % dose/g Lung (30 minutes): 5.11 % dose/g
- % dose/g Muscle (30 minutes): 0.46 % dose/g
- % dose/g Pancreas (30 minutes): 1.15 % dose/g
- % dose/g Skin (30 minutes): 0.55 % dose/g
- % dose/g Spleen (30 minutes): 1.98 % dose/g
- % dose/g Stomach (30 minutes): 3.10 % dose/g
- % dose/g Tail (30 minutes): 2.77 % dose/g
- % dose/g Testes (30 minutes): 1.56 % dose/g
- % dose/g Thyroid (30 minutes): 0.81 % dose/g
- % dose/g Urogenital (30 minutes): 22.15 % dose/g
- % dose/organ Blood (30 minutes): 2.03 % dose/organ
- % dose/organ Body leftover (30 minutes): 10.62 % dose/organ
- % dose/organ Bone (30 minutes): 3.31 % dose/organ
- % dose/organ Brain (30 minutes): 0.17 % dose/organ
- % dose/organ Fat (30 minutes): 0.21 % dose/organ
- % dose/organ Heart (30 minutes): 0.11 % dose/organ
- % dose/organ Intestine (30 minutes): 28.28 % dose/organ
- % dose/organ Kidney (30 minutes): 2.56 % dose/organ
- % dose/organ Liver (30 minutes): 4.22 % dose/organ
- % dose/organ Lung (30 minutes): 0.99 % dose/organ
- % dose/organ Muscle (30 minutes): 4.68 % dose/organ
- % dose/organ Pancreas (30 minutes): 0.15 % dose/organ
- % dose/organ Skin (30 minutes): 2.10 % dose/organ
- % dose/organ Spleen (30 minutes): 0.19 % dose/organ
- % dose/organ Stomach (30 minutes): 1.80 % dose/organ
- % dose/organ Tail (30 minutes): 1.93 % dose/organ
- % dose/organ Testes (30 minutes): 0.23 % dose/organ
- % dose/organ Thyroid (30 minutes): 0.01 % dose/organ
- % dose/organ Urogenital (30 minutes): 3.92 % dose/organ
- % dose/g Blood (60 minutes): 0.87 % dose/g
